The source of these data is patent US11440913B2, “Aminoimidazopyridazines as kinase inhibitors” (BRISTOL-MYERS SQUIBB COMPANY, priority 2017, dated 2022).

Counter-ions that a name gives are not always drawn. Like-named read-outs stand apart in the source and are kept apart here.

The term IC50 denotes the concentration needed to halve the response being measured.

Test [1] relates to MLKL phosphorylation in HT29-L23 human colorectal adenocarcinoma cells. The experiment in a line: MLKL Phosphorylation High-Content Assay. Type of test: cell-based. The note with it: 6 h, necroptosis induced with TNFα, SMAC mimetic and Z-VAD, read-out: pMLKL (IC50). Put shortly: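 HT29-L23 cells pretreated 30 min at 37 °C with compound (6.25 to 0.106 μM final), then necroptosis induced with TNFα 35 ng/mL, SMAC mimetic 700 nM and Z-VAD 140 nM for 6 h. Fixed cells immunostained for MLKL pS358 and imaged; IC50 and Ymax from 4-parameter logistic fit.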

Test [2] deals with His-GST-TVMV-hRIPK1(1-324) (Homo sapiens (Human), UniProt Q13546). Put plainly: RIPK1 HTRF Binding Assay. The note with it: HTRF binding, 1 h at rt, read-out: RIPK1 (IC50). Put shortly: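 HTRF probe-displacement binding: 1 nM His-GST-TVMV-hRIPK1(1-324) (baculovirus construct), 90.6 nM probe, 0.2 nM anti-GST-Tb in 20 mM HEPES, 10 mM MgCl2, 0.015% Brij-35, 4 mM DTT, 0.05 mg/mL BSA. Incubated 1 h at rt; FRET 520/495 nm ratio, inhibition relative to DMSO-only wells.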
His-GST-TVMV-hRIPK1(1-324), sequence (Q13546 1-324): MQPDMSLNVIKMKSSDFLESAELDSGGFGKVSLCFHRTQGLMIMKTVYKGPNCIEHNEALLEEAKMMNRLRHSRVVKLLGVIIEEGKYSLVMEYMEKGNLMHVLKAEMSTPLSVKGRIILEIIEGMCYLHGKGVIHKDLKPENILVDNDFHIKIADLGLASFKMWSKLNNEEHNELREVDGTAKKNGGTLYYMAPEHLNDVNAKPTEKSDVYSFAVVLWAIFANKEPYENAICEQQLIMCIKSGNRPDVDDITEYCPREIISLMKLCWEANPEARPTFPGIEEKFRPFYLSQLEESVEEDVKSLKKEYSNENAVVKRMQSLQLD

Take `CC(=O)Nc1cn2nc(-c3cnc(C)c(C(=O)Nc4cn(Cc5ccccc5)cn4)c3)ccc2n1` [Example 351, N-(1-benzyl-1H-imidazol-4-yl)-5-{2-acetamidoimidazo [1,2-b]pyridazin-6-yl}-2-methylpyridine-3-carboxamide]: the IC50 in test [1] (Homo sapiens) stood at 49 nM; in test [2], 28 nM.

`CCc1ncc(-c2ccc3nc(NC(C)=O)cn3n2)cc1C(=O)N[C@H](C)c1cc(OC(F)(F)F)ccc1F` [Example 328, 5-{2-acetamidoimidazo[1,2-b]pyridazin-6-yl}-2-ethyl-N-[(1R)-1-[2-fluoro-5-(trifluoromethoxy)phenyl]ethyl]pyridine-3-carboxamide]: the results for the concentration for half-maximal inhibition (IC50) in test [1] (Homo sapiens) and in test [2] were 198 nM and 36 nM, respectively.

Take `CC(=O)Nc1cn2nc(-c3cc(C(=O)NCc4c(F)cccc4OCC(F)(F)F)c(C)nc3C)ccc2n1` [Example 325, 5-{2-acetamidoimidazo[1,2-b]pyridazin-6-yl}-N-{[2-fluoro-6-(2,2,2-trifluoroethoxy)phenyl]methyl}-2,6-dimethylpyridine-3-carboxamide]: the IC50 in test [1] (Homo sapiens) was found to be 17 nM; in test [2] it was 9 nM.

As to `CC(=O)Nc1cn2nc(-c3cnc(Cl)c(C(=O)NCc4cc(C(F)(F)F)ccc4Cl)c3)ccc2n1` [Example 274, 2-chloro-N-{[2-chloro-5-(trifluoromethyl)phenyl]methyl}-5-{2-acetamidoimidazo[1,2-b]pyridazin-6-yl}pyridine-3-carboxamide, TFA], the IC50 is 31 nM in test [1] (Homo sapiens) and 11 nM in test [2].

For the molecule `COc1ncc(-c2ccc3nc(NC(C)=O)cn3n2)cc1C(=O)NC(C)c1c(F)cccc1OCC1CC1` (stereo not drawn) [Example 122, N-{1-[2-(cyclopropylmethoxy)-6-fluorophenyl]ethyl}-5-{2-acetamidoimidazo[1,2-b]pyridazin-6-yl}-2-methoxypyridine-3-carboxamide, TFA], the IC50 is 15 nM in test [1] (TFA) and 5 nM in test [2] (TFA).

Take `CC(=O)Nc1cn2nc(-c3cncc(C(=O)NCc4cc(OC(F)(F)F)ccc4F)c3)ccc2n1` [Example 237, 5-{2-acetamidoimidazo[1,2-b]pyridazin-6-yl}-N-{[2-fluoro-5-(trifluoromethoxy)phenyl]methyl} pyridine-3-carboxamide]: the concentration for half-maximal inhibition (IC50) was 77 nM in test [1] (Homo sapiens) and 45 nM in test [2].

Regarding `CCC(=O)Nc1cn2nc(-c3cnc(OC)c(C(=O)NCc4ccc(F)c(F)c4OCC4CC4)c3)ccc2n1` [Example 249, N-{[2-(cyclopropylmethoxy)-3,4-difluorophenyl]methyl}-2-methoxy-5-{2-propanamidoimidazo[1,2-b]pyridazin-6-yl}pyridine-3-carboxamide], the IC50 in test [1] (Homo sapiens) stood at 132 nM; in test [2], 29 nM.

As to `COc1ncc(-c2ccc3nc(NC(C)=O)cn3n2)cc1C(=O)N[C@H](C)c1cc(OC(F)(F)F)ccc1F` [Example 109, 5-{2-acetamidoimidazo[1,2-b]pyridazin-6-yl}-N-[(1R)-1-[2-fluoro-5-(trifluoromethoxy)phenyl](2,2,2-deutero)ethyl]-2-methoxypyridine-3-carboxamide], the IC50 in test [1] worked out at 85 nM; in test [2], 32 nM.

For the molecule `CC(=O)Nc1cn2nc(-c3cc(F)c(C)c(C(=O)NCc4c(F)cccc4C(=O)N4CCC(F)(F)C4)c3)ccc2n1` [Example 365, N-{[2-(3,3-difluoropyrrolidine-1-carbonyl)-6-fluorophenyl]methyl}-5-{2-acetamidoimidazo [1,2-b]pyridazin-6-yl}-3-fluoro-2-methylbenzamide], the results for the IC50 in test [1] (Homo sapiens) and in test [2] were 116 nM and 37 nM, respectively.

`CC(=O)Nc1cn2nc(-c3cnc(C)c(CNC(=O)c4cc(OC(F)(F)F)ccc4F)c3)ccc2n1` [Example 1, N-[(5-{2-acetamidoimidazo[1,2-b]pyridazin-6-yl}-2-methylpyridin-3-yl)methyl]-2-fluoro-5-(trifluoromethoxy)benzamide]: the IC50 was 240 nM in test [1] (Homo sapiens) and 101 nM in test [2].

With `[2H]C([2H])([2H])Oc1ncc(-c2ccc3nc(NC(C)=O)cn3n2)cc1C(=O)NCc1c(F)cccc1OCC(F)(F)F` [Example 42, 5-{2-acetamidoimidazo[1,2-b]pyridazin-6-yl}-N-{[2-fluoro-6-(2,2,2-trifluoroethoxy)phenyl]methyl}-2-(D3)methoxypyridine-3-carboxamide], the IC50 in test [1] (Homo sapiens) was 13 nM; in test [2], 11 nM.

Turning to `CC(=O)Nc1cn2nc(-c3cc(C(=O)NCc4cc(OC(F)(F)F)ccc4F)ccc3F)ccc2n1` [Example 432, 3-{2-acetamidoimidazo [1,2-b]pyridazin-6-yl}-4-fluoro-N-{[2-fluoro-5-(trifluoromethoxy)phenyl]methyl} benzamide], the IC50 worked out at 149 nM in test [1] (Homo sapiens) and 36 nM in test [2].

With `CC(=O)Nc1cn2nc(-c3cnc(C)c(C(=O)NCc4ccc(F)c(F)c4OCC4CC4)c3)ccc2n1` [Example 209, N-{[2-(cyclopropylmethoxy)-3,4-difluorophenyl]methyl}-5-{2-acetamidoimidazo [1,2-b]pyridazin-6-yl}-2-methylpyridine-3-carboxamide], the IC50 in test [1] (Homo sapiens) turned out to be 202 nM; in test [2], 133 nM.

Take `COc1nc(C)c(-c2ccc3nc(NC(C)=O)cn3n2)cc1C(=O)NCc1cccc(F)c1OCC1CC1` [Example 299, N-{[2-(cyclopropylmethoxy)-3-fluorophenyl]methyl}-5-{2-acetamidoimidazo[1,2-b]pyridazin-6-yl}-2-methoxy-6-methylpyridine-3-carboxamide]: the IC50 in test [1] (Homo sapiens) came to 1 nM; in test [2], 4 nM.

Take `COc1ncc(-c2ccc3nc(NC(=O)CC#N)cn3n2)cc1C(=O)NCc1cc(OC(F)(F)F)ccc1F` [Example 33, 5-[2-(2-cyanoacetamido)imidazo[1,2-b]pyridazin-6-yl]-N-{[2-fluoro-5-(trifluoromethoxy)phenyl]methyl}-2-methoxypyridine-3-carboxamide]: the values for the concentration for half-maximal inhibition (IC50) in test [1] (Homo sapiens) and in test [2] were 183 nM and 186 nM, respectively.

With `CC(=O)Nc1cn2nc(-c3cncc(C(=O)NCc4cc(F)ccc4OC4CCCC4)c3)ccc2n1` [Example 242, N-{[2-(cyclopentyloxy)-5-fluorophenyl]methyl}-5-{2-acetamidoimidazo[1,2-b]pyridazin-6-yl}pyridine-3-carboxamide], the IC50 stood at 11 nM in test [1] (Homo sapiens) and 4 nM in test [2].

On to “5-{2-acetamidoimidazo[1,2-b]pyridazin- 6-yl}-2-methoxy-6-methyl-N-{[2- (trifluoromethoxy)phenyl](deutero)- methyl}pyridine-3-carboxamide [Example 295]”, for which the figures for the IC50 in test [1] and in test [2] were 23 nM and 10 nM, respectively.

`COc1nc(C)c(-c2ccc3nc(NC(C)=O)cn3n2)cc1C(=O)NCc1cc(F)cc(OC(F)(F)F)c1` [Example 280, 5-{2-acetamidoimidazo[1,2-b]pyridazin-6-yl}-N-{[3-fluoro-5-(trifluoromethoxy)phenyl]methyl}-2-methoxy-6-methylpyridine-3-carboxamide]: the IC50 in test [1] (Homo sapiens) was 36 nM; in test [2] it was 5 nM.

Consider `CC(=O)Nc1cn2nc(-c3cnc(C)c(C(=O)NCc4cccnc4OCC4CCCC4)c3)ccc2n1` [Example 217, N-{[2-(cyclopentylmethoxy)pyridin-3-yl]methyl}-5-{2-acetamidoimidazo [1,2-b]pyridazin-6-yl}-2-methylpyridine-3-carboxamide], for which the IC50 in test [1] (Homo sapiens) was found to be 205 nM; in test [2], 54 nM.

On to `[2H]C([2H])(NC(=O)c1cc(-c2ccc3nc(NC(=O)CO)cn3n2)cnc1C)c1cc(F)cc(F)c1OC1CCOCC1` [Example 184, N-{[3,5-difluoro-2-(oxan-4-yloxy)phenyl](deutero)methyl}-5-[2-(2-hydroxyacetamido)imidazo [1,2-b]pyridazin-6-yl]-2-methylpyridine-3-carboxamide], for which the IC50 stood at 177 nM in test [1] (Homo sapiens) and 9 nM in test [2].

For `CC(=O)Nc1cn2nc(-c3cnc(Cl)c(C(=O)NC(C)c4cc(C(F)(F)F)ccc4F)c3)ccc2n1` (stereo not drawn) [Example 269, 2-chloro-5-{2-acetamidoimidazo[1,2-b]pyridazin-6-yl}-N-{1-[2-fluoro-5-(trifluoromethyl)phenyl]ethyl}pyridine-3-carboxamide], the results for the half-maximal inhibitory concentration (IC50) in test [1] (Homo sapiens) and in test [2] were 209 nM and 55 nM, respectively.

As for `COc1nc(C)c(-c2ccc3nc(NC(C)=O)cn3n2)cc1C(=O)NCc1c(F)ccc(F)c1OC` [Example 285, N-[(3,6-difluoro-2-methoxyphenyl)methyl]-5-{2-acetamidoimidazo[1,2-b]pyridazin-6-yl}-2-methoxy-6-methylpyridine-3-carboxamide], the IC50 in test [1] (Homo sapiens) was 23 nM; in test [2], 17 nM.

For `Cc1ncc(-c2ccc3nc(NC(=O)CO)cn3n2)cc1C(=O)NCc1cc(OC(F)(F)F)ccc1F` [Example 39, N-{[2-fluoro-5-(trifluoromethoxy)phenyl]methyl}-5-[2-(2-hydroxyacetamido)imidazo[1,2-b]pyridazin-6-yl]-2-methylpyridine-3-carboxamide], the IC50 in test [1] (Homo sapiens) is 119 nM; in test [2], 55 nM.

On to `COc1cc(F)c(-c2ccc3nc(NC(C)=O)cn3n2)cc1C(=O)NCc1cc(F)ccc1C(=O)N1CCCC1(C)C` [Example 419, N-{[2-(2,2-dimethylpyrrolidine-1-carbonyl)-5-fluorophenyl]methyl}-5-{2-acetamidoimidazo [1,2-b]pyridazin-6-yl}-4-fluoro-2-methoxybenzamide], for which the values for the IC50 in test [1] (Homo sapiens) and in test [2] were 28 nM and 4 nM, respectively.
